In brackets after ≈: the same amount, converted by molar mass.
Experiments:
Format in all cases: cell-based
S. pneumoniae ATCC 51916 = assay: MIC, S. pneumoniae; settings: S. pneumoniae (Spn52); in µg/mL
S. aureus ATCC 13709 = assay: MIC, antibacterial potency, S. aureus; settings: S. aureus (SA); in µg/mL
E. coli 8 ATCC 25922 = assay: MIC, E. coli 8 (wt); settings: E. coli 8 (EC8)

Row | SMILES | MIC Spn52 (S. pneumoniae ATCC 51916) | MIC, SA (S. aureus ATCC 13709) | MIC EC8 (E. coli 8 ATCC 25922)
1 | CCNC(=O)NC1C2CN(c3nc(Sc4cnc5cccnc5c4)nc4[nH]c(CC)c(Cl)c34)CC21 (stereo not drawn) [701,028] | <=0.5 | <=0.5 | > 64 µg/mL
2 | CCc1[nH]c2nc(N3CCN(c4cc(C(=O)OC)nc5ccc(Cl)cc45)CC3)ncc2c1Cl [701,237] | >64 | >64 | > 64 µg/mL
3 | CCc1[nH]c2nc(Sc3cnc4cccnc4c3)nc(N3C[C@H](N)[C@H](C(=O)N4CC[C@@H](N)C4)C3)c2c1Cl [701,023] | >64 | >64 | > 64 µg/mL
4 | CCc1[nH]c2nc(Sc3cnc4ccc[n+]([O-])c4c3)nc(N3CC(NS(C)(=O)=O)C3)c2c1Cl [701,263] | 1 | <=0.5 | > 64 µg/mL
5 | CCc1[nH]c2nc(Oc3cncnc3)nc(N3CC(N)C3)c2c1Cl [700,907] | 16 | 8 | 64 µg/mL (≈ 185 µM)
6 | CCc1[nH]c2nc(Sc3cnc4ccc[n+]([O-])c4c3)nc(N3C[C@@H]4[C@@H](CN)[C@@H]4C3)c2c1Cl [701,269] | <=0.5 | <=0.5 | 8 µg/mL (≈ 17.1 µM)
7 | CCc1[nH]c2nc(Sc3ccc4cc5c([n+]([O-])c4c3)CCOC5)nc(N3CC[C@@H](N)C3)c2c1Cl [701,083] | 1 | <=0.5 | 16 µg/mL (≈ 32.2 µM)
8 | CCc1[nH]c2nc(Sc3ccc4c(N5CC(N)C5)ncnc4c3)nc(N3CC[C@@H](N)C3)c2c1Cl [700,942] | 16 | 16 | 8 µg/mL (≈ 16.1 µM)
9 | CCc1[nH]c2nc(Sc3ccc4c(c3)c(=O)c(C#N)cn4CCN(C)C)nc(N3CC[C@@H](N)C3)c2c1Cl [700,928] | 8 | 2 | 16 µg/mL (≈ 29.8 µM)
10 | CCc1[nH]c2nc(Sc3cnc4cccnc4c3)nc(N3CC4C(N)C4C3)c2c1C (stereo not drawn) [701,143] | 2 | <=0.5 | 64 µg/mL (≈ 153 µM)
11 | N[C@@H]1CCN(c2nc(Sc3cnc4ccc[n+]([O-])c4c3)nc3[nH]c(C4CC4)c(Cl)c23)C1 [701,075] | 8 | 8 | 8 µg/mL (≈ 17.6 µM)
12 | CCc1[nH]c2nc(Sc3ccc4ccc[n+]([O-])c4c3)nc(N3CC4C(N)C4C3)c2c1Cl (stereo not drawn) [700,994] | <=0.5 | <=0.5 | 8 µg/mL (≈ 17.7 µM)
13 | CCOC(=O)C(=O)NCC1CCN(c2nc(Sc3cnc4cccnc4c3)nc3[nH]c(CC)c(Cl)c23)C1 (stereo not drawn) [701,043] | >64 | 1 | > 64 µg/mL
14 | CCc1[nH]c2nc(Sc3cnc4cccnc4c3)nc(N3CC[C@@H](N)C3)c2c1C [701,161] | 16 | 4 | 64 µg/mL (≈ 158 µM)
15 | CCc1[nH]c2nc(Sc3cncc(C#N)c3)nc(N3CC4C(C3)C4(N)C(N)=O)c2c1Cl (stereo not drawn) [700,969] | 2 | <=0.5 | > 64 µg/mL
16 | CCc1[nH]c2nc(Sc3ccc4c(c3)c(=O)c(C#N)cn4CCCN(C)C)nc(N3CC[C@@H](N)C3)c2c1Cl [700,929] | 64 | 16 | 32 µg/mL (≈ 58.1 µM)
17 | CCc1[nH]c2nc(Sc3ccc4cc5c(nc4c3)CCOC5)nc(N3CC[C@@H](N)C3)c2c1Cl [701,082] | 16 | <=0.5 | 4 µg/mL (≈ 8.32 µM)
18 | Cc1[nH]c2nc(Sc3cnc4nccnc4c3)nc(N3CC4C(N)C4C3)c2c1C (stereo not drawn) [701,117] | 8 | 8 | > 64 µg/mL
19 | CCc1[nH]c2nc(N3CCN(c4cc(C(=O)O)nc5ccc(Cl)cc45)CC3)ncc2c1Cl [701,260] | 64 | 8 | > 64 µg/mL
20 | CCc1[nH]c2nc(Sc3cnc4cccnc4c3)nc(N3CCNCCNCC3)c2c1Cl [701,003] | 32 | >64 | > 64 µg/mL
21 | CCc1[nH]c2nc(Sc3ccc4cc5c([n+]([O-])c4c3)CCNC5)nc(N3CC4C(N)C4C3)c2c1Cl (stereo not drawn) [700,972] | 1 | <=0.5 | 4 µg/mL (≈ 7.87 µM)
22 | CCc1[nH]c2nc(Sc3cnc4nccnc4c3)nc(N3CCC(CC)(NC(=O)C(F)(F)F)C3)c2c1Cl (stereo not drawn) [701,120] | 32 | 4 | > 64 µg/mL
23 | CCc1[nH]c2nc(Sc3ccc4c(N5CC(CN)C5)nc(C)nc4c3)nc(N3CC[C@@H](N)C3)c2c1Cl [700,922] | 64 | 32 | 4 µg/mL (≈ 7.63 µM)
24 | CCc1[nH]c2nc(Sc3cccnc3)nc(N3C[C@@H]4[C@@H](N)[C@@H]4C3)c2c1C(F)F [701,162] | 32 | 16 | > 32 µg/mL
25 | N[C@@H]1CCN(c2nc(Sc3cnc4cccnc4c3)nc3[nH]c(CC(F)(F)F)c(Cl)c23)C1 [701,209] | 4 | 2 | > 64 µg/mL
26 | CCc1[nH]c2nc(Sc3ccc4c(N5CC(CN)C5)nc(C)nc4c3)nc(N3CC4C(C3)C4(N)C(N)=O)c2c1Cl (stereo not drawn) [700,956] | 32 | 8 | > 64 µg/mL
27 | CCc1[nH]c2nc(Sc3ccc4nccnc4c3)nc(N3CC[C@@H](N)C3)c2c1Cl [701,005] | <=0.5 | <=0.5 | 16 µg/mL (≈ 37.6 µM)

The next lines start with the values.

Row | MIC Spn52 (S. pneumoniae ATCC 51916) | MIC, SA (S. aureus ATCC 13709) | MIC EC8 (E. coli 8 ATCC 25922) | SMILES
28 | <=0.5 | <=0.5 | > 64 µg/mL | CCc1[nH]c2nc(Oc3ccc4nccnc4c3)nc(Oc3ccc4nccnc4c3)c2c1Br [700,938]
29 | 4 | <=0.5 | > 64 µg/mL | CCc1[nH]c2nc(Oc3ccc4sc(C)nc4c3)nc(Oc3cccc(C#N)c3)c2c1Br [700,949]
30 | <=0.5 | <=0.5 | 8 µg/mL (≈ 17.7 µM) | CCc1[nH]c2nc(Oc3cncnc3)nc(Oc3cc(O)cc(C#N)c3)c2c1Br [701,249]
31 | <=0.5 | <=0.5 | > 64 µg/mL | CCc1[nH]c2nc(Oc3cncc(OC)c3)nc(Oc3cccc(C#N)c3)c2c1Br [700,982]
32 | 1 | <=0.5 | > 64 µg/mL | CCc1[nH]c2nc(Oc3cncc(C#N)c3)nc(Cc3cccc(C#N)c3)c2c1Cl [700,927]
33 | 32 | 2 | > 64 µg/mL | CCc1[nH]c2nc(Oc3cnc4ccoc4c3)nc(N3CC(N)C3)c2c1Br [700,935]
34 | 16 | 4 | > 64 µg/mL | CCc1[nH]c2nc(Oc3cncnc3)nc(Oc3ccc4ncnc(N5CC(N)C5)c4c3)c2c1Br [701,297]
35 | <=0.5 | <=0.5 | > 64 µg/mL | CCc1[nH]c2nc(Oc3cncc(C#N)c3)nc(Oc3cncc(OC)c3)c2c1Br [700,945]
36 | <=0.5 | <=0.5 | > 32 µg/mL | CCc1[nH]c2nc(Oc3ccc4c(c3)ncc[n+]4[O-])nc(Oc3ccc4c(c3)ncc[n+]4[O-])c2c1Br [701,058]
37 | <=0.5 | <=0.5 | > 64 µg/mL | CCc1[nH]c2nc(Oc3cncc(C#N)c3)nc(Oc3cnc(N)nc3)c2c1Br [701,255]
38 | 64 | 64 | > 64 µg/mL | CCc1[nH]c2nc(Oc3cccc(C#N)c3)nc(C(C)N3CC4C(C3)C4(N)C(N)=O)c2c1Cl (stereo not drawn) [700,952]
39 | <=0.5 | <=0.5 | > 64 µg/mL | CCc1[nH]c2nc(Oc3cnc4c(c3)ncn4C)nc(Oc3cncc(OC)c3)c2c1Br [700,964]
40 | 4 | 2 | > 64 µg/mL | CCc1[nH]c2nc(Oc3cncc(C(N)=O)c3)nc(C)c2c1Cl [701,231]
41 | 2 | 1 | > 64 µg/mL | CCc1[nH]c2nc(Oc3cnc(O)nc3)nc(Oc3cnc(O)nc3)c2c1Br [701,105]
42 | <=0.5 | <=0.5 | > 64 µg/mL | CCc1[nH]c2nc(Oc3ccc4nccnc4c3)nc(N3CC4C(C3)C4(N)C(N)=O)c2c1Cl (stereo not drawn) [700,989]
43 | 8 | 8 | > 64 µg/mL | CCc1[nH]c2nc(Oc3ccc4c(N5CC(N)C5)ncnc4c3)nc(Oc3cccc(C#N)c3)c2c1Br [700,944]
44 | <=0.5 | <=0.5 | > 64 µg/mL | CCc1[nH]c2nc(Oc3ccc[n+]([O-])c3)nc(Oc3ccc4nccnc4c3)c2c1Br [701,091]
45 | <=0.5 | <=0.5 | > 64 µg/mL | CCc1[nH]c2nc(Oc3cnc4c(c3)ncn4C)nc(Oc3ccc4nccnc4c3)c2c1Br [701,030]
46 | 64 | >64 | > 64 µg/mL | CC(=O)c1nc(Oc2cccc(C#N)c2)nc2[nH]c(C(C)O)c(Cl)c12 (stereo not drawn) [700,947]
47 | 1 | 1 | 32 µg/mL (≈ 66.7 µM) | CCc1[nH]c2nc(Sc3cc(C#N)c4c(c3)c(=O)ccn4C)nc(N3CC[C@@H](N)C3)c2c1Cl [701,088]
48 | >64 | >64 | > 64 µg/mL | CCc1[nH]c2nc(Oc3cncc(C(=O)O)c3)nc(Oc3cncnc3)c2c1Cl [700,932]
49 | >64 | >64 | > 64 µg/mL | CCc1[nH]c2nc(Oc3ccc4nccnc4c3)nc(Oc3ccc(C#N)cc3Cl)c2c1Br [701,287]
50 | 2 | 1 | > 64 µg/mL | CCc1[nH]c2nc(Oc3cncnc3)nc(Oc3cccc(CNC)c3)c2c1Cl [701,251]
51 | 4 | <=0.5 | > 64 µg/mL | CCc1[nH]c2nc(Oc3ccc4nccnc4c3)nc(Oc3ccc4c(N)nc(N)nc4c3)c2c1Br [700,979]
52 | <=0.5 | <=0.5 | 32 µg/mL (≈ 70.8 µM) | CCc1[nH]c2nc(Oc3ccc[n+]([O-])c3)nc(Oc3cccc(C#N)c3)c2c1Br [701,267]
53 | 4 | <=0.5 | > 16 µg/mL | CCc1[nH]c2nc(Oc3ccc4nccnc4c3)nc(N3CC(O)C3)c2c1Cl [700,948]

From patent US10047105B2, “Gyrase inhibitors” (Merck Sharp & Dohme Corp., priority 2009, dated 2018)
